# Data reported in US9271492B2, “Antimicrobial composition” (Rohm and Haas Company, priority 2011, dated 2016).
# Experiments:
# Format in all cases: cell-based
# [1] = test system: Escherichia coli (E. coli - ATCC #10536); test: Example 2: high resolution MBC synergy assay in phosphate buffer containing 5% dipropylene glycol; conditions: for ΣFBC: calculated from Ca/MBCA + Cb/MBCB; for Ca, end-point (MBC) of first component thymol in the mixture / MBC of component alone (MBCA, MBCB) / Cb, end-point (MBC) of second component carveol in the mixture / Cb, end-point (MBC) of second component perillyl alcohol in the mixture: complete kill in 15 seconds; for MBC of component alone (MBCA, MBCB): phosphate buffer with 5% DPG, about 1×10^8 bacteria per mL; for Cb, end-point (MBC) of second component carveol in the mixture / Cb, end-point (MBC) of second component perillyl alcohol in the mixture: mixture with thymol at Ca
# Procedure: In this Example, a wide range of combinations of chemicals was tested by conducting high resolution MBC assays of carveol or perillyl alcohol in the presence of various concentrations of thymol. […] The MBC plate was inoculated one column at a time with the test microorganism. An aliquot of the inoculated well was transferred at 15 seconds to a plate containing a neutralizing agent (D/E Neutralizing Broth), mixed and held for 5 minutes before being transferred to a growth plate containing trypticase soy broth (TSB). The TSB plate was incubated at 37° C. and read for the presence/absence of growth at 24 hours. […] This microorganism is representative of natural contaminants in many consumer and industrial applications. […] The tables show the specific combinations of two components; results against the microorganism tested; the end-point activity in weight % measured by the MBC for the first component alone (thymol, MBCA), for the second component alone ([…] alcohol, MBCB), for the first component in the mixture (Ca) and for the second component in the mixture (Cb); the calculated ΣFBC value; and the range of synergistic ratios for each combination tested (first component to second component or A/B) against the particular microorganism.
# [2] = test system: Escherichia coli (E. coli ATCC #10536); test: Example 3: automated assessment of efficacy in surfactant base (2.85% sodium cocoyl glycinate + 1.85% sodium lauroamphoacetate, pH 10); conditions: for MBC (minimum biocidal concentration): component alone in 2.85% sodium cocoyl glycinate + 1.85% sodium lauroamphoacetate solution at pH 10; for bactericidal efficacy in combination with thymol (in words): in combination with thymol at concentrations lower than their MBC in the same surfactant formulation, complete kill in all 4 or 3 replicates
# Procedure: In these examples, the efficacy of combinations of thymol and menthadiene alcohols were tested in a surfactant cleansing formulation comprising 2.85% sodium cocoyl glycinate and 1.85% sodium lauroamphoacetate. This corresponds to a 50% in use dilution with water of a typical neat formulation containing 5.7% cocoyl glycinate and 3.7% % sodium lauroamphoacetate during hand washing. Solutions were prepared such that the concentrations of the surfactant components and test actives were 1.1 times the final desired concentration in order to allow for dilution with the bacterial inoculum in the test. The solutions were manually adjusted to pH 10.0 by dropwise addition of sodium hydroxide solution, as measured with a pH meter at ambient temperature. Solutions of the thymol and/or menthadiene alcohols were prepared at a maximum of 24 hours before testing. The same thymol and menthadiene alcohols were used as in Example 1.
# The efficacy of the combinations of the present invention was determined against the same bacterium as in Example 1, Escherichia coli (E. coli ATCC #10536), at a concentration of approximately 1×10^8 bacteria per mL.
# Tests were conducted using standard microtiter plate assays using an automated liquid handling system. 270 μl of the surfactant test solution was pipetted into each well of the microtitre plate (Nunc F Gamma Irradiated 96F untreated microtitre plates of clear polystyrene) and 30 μl of the bacterial suspension was then added. After exactly 15 seconds of bacterial exposure, a 30 μl volume of bacterial cells was withdrawn and transferred to 270 μl of D/E quench solution. After 5 minutes in the D/E quench, the optical density (OD) was measured for each plate in turn at two specific wavelengths (450 nm and 590 nm). These provide a dual check of antimicrobial activity, as the OD450 reading is specific for the yellow colour of D/E quench when bacterial growth is observed, whereas OD590 is specific for the initial purple colour of the D/E quench which is retained if no bacterial growth is observed. […] Delta OD values were calculated by subtracting […] at time=16 hours. […] To identify antibacterially efficacious systems (those preventing appreciable bacterial growth after incubation), the following threshold changes in OD readings have been adopted: if (1). OD450 increases by less than 0.2 absorbance unit (AU) on incubation and (2). […] The number of replicate wells showing either bacterial growth or no growth is also readily assessed by eye by following the colour change. […]
# In each case, binary mixtures were assessed in the weight to weight ratio of thymol to menthadiene alcohol of 1:2.5.
# [3] = test system: Escherichia coli (10536 strain); test: Example 1: 15 second contact suspension kill assay, mean bacterial survival and MBC; conditions: component alone; lowest concentration giving complete kill after 15 seconds; upper boundary to the MBC
smiles,measurement,setting,value
"Cc1ccc(C(C)C)c(O)c1 [thymol, 2-isopropyl-5-methylphenol]",ΣFBC,[1],1.00
same,"Ca, end-point (MBC) of first component thymol in the mixture","[1]; mixture with carveol at Cb, thymol to carveol ratio 1 to 0.05",0.5 weight %
same,"Ca, end-point (MBC) of first component thymol in the mixture","[1]; mixture with carveol at Cb, thymol to carveol ratio 1 to 0.08",0.6 weight %
same,"Ca, end-point (MBC) of first component thymol in the mixture","[1]; mixture with carveol at Cb, thymol to carveol ratio 1 to 0.19",0.4 weight %
same,"Ca, end-point (MBC) of first component thymol in the mixture","[1]; mixture with carveol at Cb, thymol to carveol ratio 1 to 0.25",0.3 weight %
same,"Ca, end-point (MBC) of first component thymol in the mixture","[1]; mixture with carveol at Cb, thymol to carveol ratio 1 to 0.5",0.2 weight %
same,"Ca, end-point (MBC) of first component thymol in the mixture","[1]; mixture with carveol at Cb, thymol to carveol ratio 1 to 3.5",0.1 weight %
same,"Ca, end-point (MBC) of first component thymol in the mixture","[1]; mixture with carveol at Cb, thymol to carveol ratio 1 to 4.38",0.08 weight %
same,"Ca, end-point (MBC) of first component thymol in the mixture","[1]; mixture with perillyl alcohol at Cb, thymol to perillyl alcohol ratio 1 to 0.17",0.3 weight %
same,"Ca, end-point (MBC) of first component thymol in the mixture","[1]; mixture with perillyl alcohol at Cb, thymol to perillyl alcohol ratio 1 to 0.5",0.2 weight %
same,"Ca, end-point (MBC) of first component thymol in the mixture","[1]; mixture with perillyl alcohol at Cb, thymol to perillyl alcohol ratio 1 to 2.5",0.08 weight %
same,MBC (minimum biocidal concentration),[2],0.2 % w/v
"C=C(C)C1CC=C(C)C(O)C1 (stereo not shown) [carveol, 2-methyl-5-(prop-1-en-2-yl)cyclohex-2-enol]",MBC (minimum biocidal concentration),[3],0.3 % w/v
same,ΣFBC,[1],1.00
same,"MBC of component alone (MBCA, MBCB)",[1],0.7 weight %
same,"Cb, end-point (MBC) of second component carveol in the mixture",[1]; thymol to carveol ratio 1 to 0.05,0.025 weight %
same,"Cb, end-point (MBC) of second component carveol in the mixture",[1]; thymol to carveol ratio 1 to 0.08,0.05 weight %
same,"Cb, end-point (MBC) of second component carveol in the mixture",[1]; thymol to carveol ratio 1 to 0.25,0.075 weight %
same,"Cb, end-point (MBC) of second component carveol in the mixture",[1]; thymol to carveol ratio 1 to 0.5,0.1 weight %
same,"Cb, end-point (MBC) of second component carveol in the mixture",[1]; thymol to carveol ratio 1 to 4.38,0.35 weight %
same,bactericidal efficacy in combination with thymol (in words),[2],15 second bactericidal efficacy
"C=C(C)[C@@H]1CC=C(CO)CC1 [perillyl alcohol, (S)-(4-(prop-1-en-2-yl)cyclohex-1-en-1-yl)methanol]",MBC (minimum biocidal concentration),[3],0.1 % w/v
same,ΣFBC,[1],1.00
same,"MBC of component alone (MBCA, MBCB)",[1],0.3 weight %
same,"Cb, end-point (MBC) of second component perillyl alcohol in the mixture",[1]; thymol to perillyl alcohol ratio 1 to 0.13,0.025 weight %
same,"Cb, end-point (MBC) of second component perillyl alcohol in the mixture",[1]; thymol to perillyl alcohol ratio 1 to 0.17,0.05 weight %
same,"Cb, end-point (MBC) of second component perillyl alcohol in the mixture",[1]; thymol to perillyl alcohol ratio 1 to 0.38,0.075 weight %
same,"Cb, end-point (MBC) of second component perillyl alcohol in the mixture",[1]; thymol to perillyl alcohol ratio 1 to 0.5,0.1 weight %
same,"Cb, end-point (MBC) of second component perillyl alcohol in the mixture",[1]; thymol to perillyl alcohol ratio 1 to 2.5,0.2 weight %
same,MBC (minimum biocidal concentration),[2],0.5 % w/v
same,bactericidal efficacy in combination with thymol (in words),[2],15 second bactericidal efficacy
